Source: patent US20040014212A1, “Preparation and xenotransplantation or porcine islets” (priority 2000, published 2004)

How the values were obtained:
porcine islets [1] = experiment: Static glucose stimulation (SGS): insulin secretion of cultured porcine islets; assay type: cell-based
Text: Static glucose stimulation (SGS) is used to assess in vitro function of the porcine islets by exposing them to low and high concentrations of glucose and theophylline. Determination of the in vitro insulin secretory capacity is undertaken on both free islets (after 3 days in culture) and after their subsequent encapsulation or confinement.
Keep the cells 3 days in culture before Static Glucose Stimulation (SGS). SGS involves exposure of the cells to low and high concentration of glucose to check insulin production. Using 0.1 ug/ml concentration add IGF1 and GPE to two plates 24 hours before SGS (day 2 after isolation)

porcine islets [2] = experiment: as above; assay type: cell-based; settings: for effect of exposure beyond 24 hrs on insulin production in response to glucose: post isolation
[3] = Incubated 24 hrs with 1.0 ug/ml IgF-1

Compound | effect on insulin production of porcine islet cells (porcine islets [1]; 0.1 μg/ml during culturing, initial exposure of 24 hrs) | persistence of increased insulin production post exposure (porcine islets [2]) [days] | Insulin secretion In response to 19.4 mM Glucose + 10 mM Theophyline After 3 days culture Post isolation (porcine islets [2]; Incubated 24 hrs With 0.1 ug/ml IgF-2 day 1, second sub-table) [uU/hr/100 IEQ] | Insulin secretion In response to 19.4 mM Glucose + 10 mM Theophyline After 3 days culture Post isolation (porcine islets [2]; Incubated 7 days with 0.1 ug/ml IgF-2) [uU/hr/100 IEQ] | effect of exposure beyond 24 hrs on insulin production in response to glucose (porcine islets [2]) | effect of withdrawal of Nicotinamide from the culture media on islet insulin production (porcine islets [1]) | concentration in culture sufficient to produce optimal insulin secretion during glucose challenge (porcine islets [1]; IgF-1 in culture) [µg/mL] | Insulin secretion In response to 19.4 mM Glucose + 10 mM Theophyline 7 days post isolation (porcine islets [1]; [3]) [uU/hr/100 IEQ] | Insulin secretion In response to 19.4 mM Glucose + 10 mM Theophyline After 3 days (porcine islets [1]; [3]) [uU/hr/100 IEQ] | Insulin secretion In response to 19.4 mM Glucose + 10 mM Theophyline After 3 days culture Post isolation (porcine islets [1]; Incubated 3 days With 0.1 ug/ml IgF-1 Without Nicotinamide) [uU/hr/100 IEQ] | increase of insulin response to glucose (porcine islets [1]; porcine islets in culture exposed to IgF-1) [fold] | Insulin secretion In response to 19.4 mM Glucose + 10 mM Theophyline, increase Compared to control (porcine islets [2]; 3 days post IgF-1 Exposure) | Insulin secretion In response to 19.4 mM Glucose + 10 mM Theophyline, increase Compared to control (porcine islets [2]; 14 days post IgF-1 Exposure) | Insulin secretion In response to 19.4 mM Glucose + 10 mM Theophyline 7 days post isolation (porcine islets [2]; Incubated 7 days with 0.1 ug/ml IgF-1) [uU/hr/100 IEQ] | effect of increasing the concentration in culture on insulin response (porcine islets [2]; above the sufficient concentration) | increase in insulin secretion in response to glucose challenge (porcine islets [2]; Lidocaine during digestion, after 3 days in culture) [fold] | Insulin secretion in response to 19.4 mM Glucose + 10 mM Theophyline After 3 days culture Post isolation (porcine islets [2]; islets from Collagenase digestion, with or without 1 mM Lidocaine) [uU/hr/100 IEQ]
IgF-2: insulin-like growth factor II | appeared to increase | ≤ 3 | 32 | 38.4 | failed to increase | – | – | – | – | – | – | – | – | – | – | – | –
IgF-1: Human Insulin-like Growth Factor I, a potent mitogenic growth factor | – | ≥ 14 | – | – | no increased benefit | eliminated the benefit of IgF-1 | 0.1 | 57.5 | 56.8 | 47.6 | ≤ 3 | 1.5-fold increase | 1.3-fold increase | 58 | No further benefit | – | –
CCN(CC)CC(=O)Nc1c(C)cccc1C [Lidocaine, reference compound] | – | – | – | – | – | – | – | – | – | – | – | – | – | – | – | 3 | 163.8
